Reference: patent publication US4174406A, “Terpenylaminoalkanol fish toxicants” (priority 1977, dated 1979)
Values after ≈ are worked out from the molar mass of the structure shown.

What was measured:
[1] = system: Lake trout; experiment: Laboratory fish toxicity test (Table 1); assay type: in vivo, Salvelinus namaycush; conditions: tech, 12 C, soft water
Method: (§1) Fish were obtained from state and federal hatcheries and maintained prior to testing by a trained fish culturist. Fish of total length 2-5 cm were used in laboratory tests while for outdoor tests small fish (4-6 cm in length) and larger carp and buffalo (Ictiobus cyprinellus) were used.
(§2) In all tests 10 fish of each were exposed to selective concentrations of the toxicant. Mortalities were observed and recorded at 1,2 and 6 hours on the first day and once daily thereafter, during 96 hour exposure.
(§3) Laboratory tests were also conducted in soft water 12° C. wherein the toxicant was evaluated against fifteen species of fish including both cold and warm water varieties. In Table 1, the LC 50 toxicity values for N-(2-hydroxyethyl) digeranylamine is shown for various species. LC50 is defined as the amount (mg/liter) of toxicant required to kill 50 percent of the particular fish species at 95% confidence interval.

[2] = system: Banded killifish; experiment: Laboratory fish toxicity test (Table 1); assay type: in vivo, Fundulus diaphanus; conditions: tech, 12 C, soft water
Method: as §1, §2, §3

[3] = system: Largermouth bass; experiment: Laboratory fish toxicity test (Table 1); assay type: in vivo, Micropterus salmoides; conditions: tech, 12 C, soft water
Method: as §1, §2, §3

[4] = system: Walleye; experiment: Laboratory fish toxicity test (Table 1); assay type: in vivo, Stizostedion vitreum; conditions: tech, 12 C, soft water
Method: as §1, §2, §3

[5] = system: Backswimmer; experiment: Static bioassay in invertebrates (Table 2); assay type: in vivo, Notonecta sp.; conditions: tech, 17 C, soft reconstituted water 42 mg/l hardness
Method: (§4) The effect of the various toxicants on common invertebrate species was determined in a static test conducted 17° C. The invertebrates tested were collected from natural populations or purchased from commercial suppliers. They were held in soft water in fiberglass tanks in the laboratory or in outdoor plastic swimming pools. Mortality was observed during holding, and only healthy organisms were used for the toxicity tests. At least 10 organisms of nine species were exposed to each concentration in static tests.

[6] = system: Fingernail clam; experiment: Static bioassay in invertebrates (Table 2); assay type: in vivo, Sphaerium sp.; conditions: 96 hours, tech, 17 C, limed spring water 22-36 mg/l hardness
Method: as §4

[7] = system: Rainbow trout; experiment: Outdoor plastic pool test (Table 3); assay type: in vivo, Salmo gairdneri; conditions: 96 hour; for % kill: 50% formulation (hydrochloride salt)
Method: (§5) N-(2-hydroxyethyl) digeranylamine was tested as a selective fish toxicant in outdoor pools stocked with various fish species and lined with black plastic using 50% water soluble formulations (hydrochloride salt). The formulation was added to each of four pools of 4,000-liter capacity at concentrations of 0.10, 0.15, 0.20, and 0.30 mg/liter. Another pool containing the same number, size, and species of fish served as a control. The test water had algal blooms, a pH of about 8.5, and a total hardness of about 200 mg/liter as CaCo3. The temperature was cool enough (15°-16°C.) to permit the use of trout.
as §1, §2
(§6) Outdoor pool tests were conducted using 50% formulation of the toxicant N-(2-hydroxyethyl) digeranylamine as indicated in Example 8. […] If selective control of white sucker and common carp is desired in an environment which includes rainbow trout, one should employ an effective concentration of toxicant which is at least as great as 0.05 mg/liter but less than 0.1 mg/liter. As a practical fishery practice in the northern United States and Canada, rainbow trout are not usually stocked in bodies of water containing the common carp species; the habitat conditions including water temperature and available oxygen of these species are usually quite different. Common carp and rainbow trout have quite different oxygen and temperature requirements and these differences generally preclude both species cohabitating under natural conditions. In this case the useful range to control common carp and white sucker can be much broader, i.e. 0.1 to 0.3 mg/liter.

[8] = system: Carp; experiment: Outdoor plastic pool test (Table 3); assay type: in vivo, Cyprinus carpio; conditions: for % kill: 50% formulation (hydrochloride salt); for survival (in words): larger carp (19 cm)
Method: as §5, §1, §2, §6

[9] = system: Grass carp; experiment: Outdoor plastic pool test (Table 3); assay type: in vivo, Ctenopharyngodon idella; conditions: for % kill: 96 hour, 50% formulation (hydrochloride salt)
Method: as §5, §1, §2, §6

[10] = system: Channel catfish; experiment: Outdoor plastic pool test (Table 3); assay type: in vivo, Ictalurus punctatus; conditions: for % kill: 96 hour, 50% formulation (hydrochloride salt)
Method: as §5, §1, §2, §6

[11] = system: Green sunfish; experiment: Outdoor plastic pool test (Table 3); assay type: in vivo, Lepomis cyanellus; conditions: for % kill: 96 hour, 50% formulation (hydrochloride salt)
Method: as §5, §1, §2, §6

[12] = system: Largemouth bass; experiment: Outdoor plastic pool test (Table 3); assay type: in vivo, Micropterus salmoides; conditions: for % kill: 96 hour, 50% formulation (hydrochloride salt)
Method: as §5, §1, §2, §6

[13] = system: Yellow perch; experiment: Outdoor plastic pool test (Table 3); assay type: in vivo, Perca flavescens; conditions: for % kill: 96 hour, 50% formulation (hydrochloride salt)
Method: as §5, §1, §2, §6

[14] = system: Walleye; experiment: Outdoor plastic pool test (Table 3); assay type: in vivo, Sitzostedion vitreum; conditions: for % kill: 96 hour, 50% formulation (hydrochloride salt)
Method: as §5, §1, §2, §6

[15] = system: bluegill; experiment: Toxicity to bluegill in waters of different hardness; assay type: in vivo, bluegill (Lepomis macrochirus)
Method: The selective toxicant, N-(2-hydroxyethyl)digeranylamine was evaluated against bluegill in waters of hardness of 12, 44, 170, and 300 p.p.m., total hardness as CaCo3. […] In contrast the specific aminoalkanols of this invention are selective to carp (Caprinus carpio) and effective in waters of high pH.

CC(C)=CCC/C(C)=C/CN(C/C=C(\C)CCC=C(C)C)CCO [N-(2-hydroxyethyl) digeranylamine]
LC50 ([1]; 3 hours): 0.109 mg/L (≈ 0.327 µM)
LC50 ([1]; 6 hours): 0.0700 mg/L (≈ 0.21 µM)
LC50 ([1]; 24 hours): 0.0470 mg/L (≈ 0.141 µM)
LC50 ([1]; 96 hours): 0.0570 mg/L (≈ 0.171 µM)
LC50 ([2]; 3 hours): 7.20 mg/L (≈ 21.6 µM)
LC50 ([2]; 6 hours): 2.77 mg/L (≈ 8.3 µM)
LC50 ([2]; 24 hours): 1.32 mg/L (≈ 3.96 µM)
LC50 ([2]; 96 hours): 0.792 mg/L (≈ 2.37 µM)
LC50 ([3]; 3 hours): 1.40 mg/L (≈ 4.2 µM)
LC50 ([3]; 6 hours): 0.530 mg/L (≈ 1.59 µM)
LC50 ([3]; 24 hours): 0.380 mg/L (≈ 1.14 µM)
LC50 ([3]; 96 hours): 0.360 mg/L (≈ 1.08 µM)
LC50 ([4]; 3 hours): 2.78 mg/L (≈ 8.33 µM)
LC50 ([4]; 6 hours): 1.03 mg/L (≈ 3.09 µM)
LC50 ([4]; 24 hours): 0.346 mg/L (≈ 1.04 µM)
LC50 ([4]; 96 hours): 0.239 mg/L (≈ 0.717 µM)
LC50 ([5]; 1 hour): 9.15 mg/L (≈ 27.4 µM)
LC50 ([5]; 3 hour): 8.35 mg/L (≈ 25 µM)
LC50 ([5]; 6 hours): 8.30 mg/L (≈ 24.9 µM)
LC50 ([5]; 28 hours): 4.90 mg/L (≈ 14.7 µM)
LC50 ([5]; 96 hours): 3.45 mg/L (≈ 10.3 µM)
LC50 [6]: 11.5 mg/L (≈ 34.5 µM)
% kill ([7]; 0.10 mg/l): 100%
% kill ([7]; 0.15 mg/l): 100%
% kill ([7]; 0.20 mg/l): 100%
% kill ([7]; 0.30 mg/l): 100%
kill (in words) ([7]; above 0.10 mg/l, 50% formulation): completely eliminated at all concentrations above 0.10 mg/l
% kill ([8]; carp (large), 0.10 mg/l, 96 hour): 27%
% kill ([8]; carp (large), 0.15 mg/l, 96 hour): 66%
% kill ([8]; carp (large), 0.20 mg/l, 96 hour): 100%
% kill ([8]; carp (large), 0.30 mg/l, 96 hour): 100%
% kill ([8]; carp (small), 0.10 mg/l, 96 hour): 100%
% kill ([8]; carp (small), 0.15 mg/l, 96 hour): 100%
% kill ([8]; carp (small), 0.20 mg/l, 96 hour): 100%
% kill ([8]; carp (small), 0.30 mg/l, 96 hour): 100%
survival (in words) ([8]; 0.2 mg/liter or higher): none survived
survival (in words) ([8]; 0.10 and 0.15 mg/liter): Some white suckers and larger carp (19 cm) survived
kill (in words) ([8]; small common carp (4-6 cm), above 0.10 mg/l, 96 hour): completely eliminated at all concentrations above 0.10 mg/l
% kill ([9]; 0.10 mg/l): 0%
% kill ([9]; 0.15 mg/l): 0%
% kill ([9]; 0.20 mg/l): 0%
% kill ([9]; 0.30 mg/l): 0%
survival (in words) ([9]; grass carp, 0.3 mg/liter, 50% formulation): complete survival
% kill ([10]; 0.10 mg/l): 0%
% kill ([10]; 0.15 mg/l): 0%
% kill ([10]; 0.20 mg/l): 0%
% kill ([10]; 0.30 mg/l): 40%
survival (in words) ([10]; channel catfish, 0.30 mg/liter and lower, 50% formulation): died at 0.30 mg/liter of toxicant, but all survived lower concentrations
% kill ([11]; 0.10 mg/l): 0%
% kill ([11]; 0.15 mg/l): 0%
% kill ([11]; 0.20 mg/l): 0%
% kill ([11]; 0.30 mg/l): 0%
survival (in words) ([11]; green sunfish, 0.3 mg/liter, 50% formulation): complete survival
% kill ([12]; 0.10 mg/l): 0%
% kill ([12]; 0.15 mg/l): 0%
% kill ([12]; 0.20 mg/l): 0%
% kill ([12]; 0.30 mg/l): 0%
survival (in words) ([12]; largemouth bass, 0.3 mg/liter, 50% formulation): complete survival
% kill ([13]; 0.10 mg/l): 0%
% kill ([13]; 0.15 mg/l): 30%
% kill ([13]; 0.20 mg/l): 0%
% kill ([13]; 0.30 mg/l): 50%
survival (in words) ([13]; yellow perch, 0.30 mg/liter and lower, 50% formulation): died at 0.30 mg/liter of toxicant, but all survived lower concentrations
% kill ([14]; 0.10 mg/l): 0%
% kill ([14]; 0.15 mg/l): 10%
% kill ([14]; 0.20 mg/l): 0%
% kill ([14]; 0.30 mg/l): 0%
survival (in words) ([14]; walleye, 0.3 mg/liter, 50% formulation): complete survival
96-hour LC50 ([15]; total hardness 12 p.p.m. as CaCo3): 0.84 mg/L
96-hour LC50 ([15]; total hardness 44 p.p.m. as CaCo3): 0.72 mg/L
96-hour LC50 ([15]; total hardness 170 p.p.m. as CaCo3): 0.46 mg/L
96-hour LC50 ([15]; total hardness 300 p.p.m. as CaCo3): 0.33 mg/L
